What all share (assay): Bliss excess, mean over the matrix (fraction); higher = more synergy
For assay [1], the system named is MDA-MB-157 (Breast Carcinoma). In a few lines: (§1)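 After 24 hours at 37°C and 5% CO2 in 1536-well plates, cells in DMEM/F12 or RPMI plus 10% FBS received two-drug dose matrices for 72 hours. Viability came from CellTiter-Glo 2.0 luminescence and was scaled as inhibition, anchored at 0 by vehicle wells and at 1 by blank wells. Combination Emax is taken as the second-highest inhibition in the matrix, and Bliss excess as the observed combination effect less EA + EB − EA·EB, with EA and EB the single-agent effects.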

Assay [2] has as its system NCI-H1781 (Lung Adenocarcinoma). In short, it runs like this:
as §1

Another assay concerns ES7 (Ewing's Sarcoma). In short, it runs like this: as §1
In assay [3] the test system is NCI-H1299 (Non-Small Cell Lung Carcinoma). In a few lines:
as §1

The subject of assay [4] is TGBC24TKB (Biliary Tract Carcinoma). In a few lines:
as §1

Assay [5] deals with OCI-AML2 (Acute Myeloid Leukemia). In short, it runs like this: as §1
Assay [6] deals with NCI-H1793 (Lung Adenocarcinoma). In short, it runs like this: as §1
Assay [7] has as its system KARPAS-1106P (B-Cell Non-Hodgkin's Lymphoma). In short, it runs like this:
as §1

The subject of assay [8] is MFH-ino (Other Solid Carcinomas). In a few lines: as §1
The test system of the next assay is CAL-78 (Chondrosarcoma). In short, it runs like this:
as §1

Assay [9] relates to HT-29 (Colorectal Carcinoma). In a few lines:
as §1

The subject of assay [10] is SUIT-2 (Pancreatic Carcinoma). In short, it runs like this: as §1
Assay [11] concerns EM-2 (Chronic Myelogenous Leukemia). In a few lines:
as §1

Assay [12] deals with DMS-273 (Small Cell Lung Carcinoma). In a few lines: as §1
The subject of assay [13] is SW1783 (Low Grade Glioma). In short, it runs like this:
as §1

For another assay, the system named is IGR-1 (Melanoma). In short, it runs like this:
as §1

Assay [14] concerns SW756 (Cervical Carcinoma). In short, it runs like this: as §1
Assay [15] has as its system KATOIII (Gastric Carcinoma). In short, it runs like this: as §1
Assay [16] deals with C3A (Hepatocellular Carcinoma). In short, it runs like this: as §1
The subject of a further assay is J82 (Bladder Carcinoma). In short, it runs like this:
as §1

This is an account of results in the supplement of paper PMC11061612.

Each structure is given as a SMILES string.

As to `NC1(C(=O)N[C@@H](CCO)c2ccc(Cl)cc2)CCN(c2ncnc3[nH]ccc23)CC1` [Capivasertib] + C[C@@H]1COCCN1C2=NC(=NC(=C2)C3(CC3)[S@](=N)(=O)C)C4=C5C=CNC5=NC=C4 [AZD6738] (first compound max 10 µM, 7x7, partner max 10 µM), the Bliss excess is -0.0365 in assay [1]; -0.032 in assay [2]; -0.055 in the assay on ES7 (Ewing's Sarcoma); -0.0309 in assay [3]; -0.0104 in assay [4]; -0.0474 in assay [5]. Further, the Bliss excess in assay [6] is 0.0097; in assay [7], -0.0661; in [8], -0.086; in the assay on CAL-78 (Chondrosarcoma) it was -0.0695; in assay [9] it was -0.0396; in [10] it was -0.0351. Moreover, the Bliss excess in [11] was -0.0512; in assay [12], -0.0377; in assay [13], -0.0511; with IGR-1 (Melanoma), -0.0227; in assay [14] it was 0.0407; in assay [15] it was -0.0941. Further, the values for the Bliss excess (in [16]; with J82 (Bladder Carcinoma)) were -0.0096 and -0.065, respectively.

As for `NC1(C(=O)N[C@@H](CCO)c2ccc(Cl)cc2)CCN(c2ncnc3[nH]ccc23)CC1` [Capivasertib] + COc1nnc2ccc(N3CCC(c4ccc(OCCN5CCN(C)C(=O)[C@H]5C)cc4)CC3)nn12 [AZD5153] (first compound max 10 µM, 7x7, partner max 1 µM), the Bliss excess in assay [1] is 0.0204; in assay [2], 0.0513; in the assay with ES7 (Ewing's Sarcoma) it was 0.104; in [3], 0.0174; in assay [4] it was 0.0597; in [5] it was 0.0068. The Bliss excess is 0.0278 in [6]; 0.0728 in assay [7]; 0.0006 in assay [8]; 0.0536 in the assay on CAL-78 (Chondrosarcoma); -0.0029 in assay [9]; 0.0367 in assay [10]. Moreover, the Bliss excess is 0.0043 in [11]; 0.0231 in assay [12]; 0.0324 in assay [13]; -0.0325 with IGR-1 (Melanoma); 0.0197 in assay [14]; -0.0386 in [15]. The Bliss excess is 0.0515 in assay [16] and 0.0421 in the assay with J82 (Bladder Carcinoma).

As to `CC(=O)c1c(C)c2cnc(Nc3ccc(N4CCNCC4)cn3)nc2n(C2CCCC2)c1=O` [Palbociclib] + CC1(C)CCC(CN2CCN(c3ccc(C(=O)NS(=O)(=O)c4ccc(NCC5CCOCC5)c([N+](=O)[O-])c4)c(Oc4cnc5[nH]ccc5c4)c3)CC2)=C(c2ccc(Cl)cc2)C1 [Venetoclax] (first compound max 10 µM, 7x7, partner max 1 µM), the Bliss excess in assay [1] was -0.0348; in assay [2], -0.045; in the assay on ES7 (Ewing's Sarcoma), 0.0277; in [3] it was 0.0231; in [4] it was -0.0121; in assay [5], 0.0188. The Bliss excess was -0.0136 in assay [6]; -0.0424 in assay [7]; -0.0576 in assay [8]; -0.0333 in the assay with CAL-78 (Chondrosarcoma); -0.0139 in assay [9]; -0.0454 in assay [10]. In addition, the Bliss excess in assay [11] is 0.0262; in assay [12] it was -0.0263; in assay [13] it was -0.0484; in the assay on IGR-1 (Melanoma), -0.0267; in [14] it was -0.062; in assay [15], -0.0606. The Bliss excess in [16] is 0.0437; in the assay with J82 (Bladder Carcinoma) it was -0.0388.

In the case of `CC1(C)CCC(CN2CCN(c3ccc(C(=O)NS(=O)(=O)c4ccc(NCC5CCOCC5)c([N+](=O)[O-])c4)c(Oc4cnc5[nH]ccc5c4)c3)CC2)=C(c2ccc(Cl)cc2)C1` [Venetoclax] + C=CCn1c(=O)c2cnc(Nc3ccc(N4CCN(C)CC4)cc3)nc2n1-c1cccc(C(C)(C)O)n1 [AZD1775] (first compound max 1 µM, partner max 1 µM), the Bliss excess in assay [1] was 0.0679; in assay [2], -0.0767; in the assay on ES7 (Ewing's Sarcoma) it was 0.119; in [3] it was 0.0038; in assay [4], -0.0108; in [5], 0.0028. Also, the Bliss excess was -0.0007 in [6]; 0.0627 in [7]; -0.0222 in assay [8]; -0.0817 in the assay on CAL-78 (Chondrosarcoma); 0.008 in assay [9]; -0.0295 in [10]. In addition, the Bliss excess is -0.0094 in assay [11]; -0.0711 in assay [12]; -0.0007 in assay [13]; 0.0147 in the assay with IGR-1 (Melanoma); -0.0401 in assay [14]; 0.0093 in assay [15]. Moreover, the values for the Bliss excess (in [16]; in the assay on J82 (Bladder Carcinoma)) were -0.0511 and -0.0832, respectively.

For the compound `COc1nnc2ccc(N3CCC(c4ccc(OCCN5CCN(C)C(=O)[C@H]5C)cc4)CC3)nn12` [AZD5153] + CCN(CCO)CCCOc1ccc2c(Nc3cc(CC(=O)Nc4cccc(F)c4)[nH]n3)ncnc2c1 [AZD2811] (first compound max 1 µM, 7x7, partner max 1 µM), the Bliss excess in assay [1] was -0.0004; in assay [2] it was -0.129; in the assay with ES7 (Ewing's Sarcoma), -0.0372; in assay [3] it was -0.0578; in assay [4], -0.0349; in assay [5], 0.0016. Further, the Bliss excess is -0.0381 in [6]; 0.019 in assay [7]; -0.0811 in assay [8]; -0.0564 in the assay with CAL-78 (Chondrosarcoma); -0.0281 in assay [9]; -0.0399 in assay [10]. The Bliss excess in assay [11] was -0.001; in assay [12] it was -0.0409; in assay [13], -0.038; with IGR-1 (Melanoma) it was 0.0249; in assay [14] it was -0.0067; in assay [15], -0.0288. The Bliss excess is -0.0567 in [16] and -0.0148 in the assay on J82 (Bladder Carcinoma).

For `Cc1c2c(nn1C)CSCc1cc(n(C)n1)CSc1cc(c3ccccc3c1)OCCCc1c(C(=O)O)n(C)c3c-2c(Cl)ccc13` [AZD5991] + C[C@@H](Nc1cc(F)cc(F)c1)c1cc(C(=O)N(C)C)cc2c(=O)cc(N3CCOCC3)oc12 [AZD8186] (first compound max 1 µM, 7x7, partner max 3 µM), the Bliss excess in [1] is 0.0836; in [2] it was 0.0182; in the assay on ES7 (Ewing's Sarcoma) it was 0.0995; in [3], -0.0181; in assay [4], 0.0027; in [5] it was -0.0721. For the same compound, the Bliss excess is -0.0254 in assay [6]; 0.0154 in assay [7]; -0.0452 in assay [8]; -0.0799 with CAL-78 (Chondrosarcoma); -0.012 in [9]; -0.015 in assay [10]. Further, the Bliss excess was -0.0528 in [11]; -0.0094 in [12]; 0.0037 in assay [13]; -0.0031 with IGR-1 (Melanoma); 0.0162 in assay [14]; -0.0132 in assay [15]. Further, the Bliss excess in assay [16] is -0.0375; in the assay with J82 (Bladder Carcinoma), 0.0359.
